Results taken from US20200181104A1, “SSAO INHIBITORS AND USES THEREOF” (METACRINE, INC., priority 2018, published 2020).
Structures can show the parent of a compound that is named as a salt.

Biological target: T1, Recombinant Human SSAO/VAP-1/AOC3 (Homo sapiens, UniProt Q16853)
T1 construct: purchased R&D systems 3957-AO
T1 sequence (Q16853 1-763): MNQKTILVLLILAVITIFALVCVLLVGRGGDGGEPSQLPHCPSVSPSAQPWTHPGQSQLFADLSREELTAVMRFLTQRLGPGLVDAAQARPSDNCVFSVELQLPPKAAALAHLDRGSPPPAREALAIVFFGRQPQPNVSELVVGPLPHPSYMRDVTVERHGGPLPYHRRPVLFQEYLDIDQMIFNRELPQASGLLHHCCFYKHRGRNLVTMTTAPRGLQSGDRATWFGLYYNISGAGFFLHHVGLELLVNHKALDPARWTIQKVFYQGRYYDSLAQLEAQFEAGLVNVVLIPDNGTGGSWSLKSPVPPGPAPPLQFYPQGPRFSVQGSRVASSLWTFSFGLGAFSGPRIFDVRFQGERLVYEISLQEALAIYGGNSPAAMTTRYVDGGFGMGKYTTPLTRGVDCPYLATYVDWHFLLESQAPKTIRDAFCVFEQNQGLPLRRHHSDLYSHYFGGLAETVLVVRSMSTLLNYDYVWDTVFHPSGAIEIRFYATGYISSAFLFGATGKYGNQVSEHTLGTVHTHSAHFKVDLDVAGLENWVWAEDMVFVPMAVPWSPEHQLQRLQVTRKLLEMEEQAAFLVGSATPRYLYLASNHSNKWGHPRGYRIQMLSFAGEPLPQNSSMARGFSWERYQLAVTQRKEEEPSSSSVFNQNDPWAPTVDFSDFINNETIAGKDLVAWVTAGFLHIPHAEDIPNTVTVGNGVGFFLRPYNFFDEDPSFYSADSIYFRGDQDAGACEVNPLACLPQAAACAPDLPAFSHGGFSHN
Test: Human Semicarbazide-Sensitive Amine Oxidase (SSAO) Assay
Assay type: biochemical
Settings: recombinant enzyme, 30 minutes preincubation at 37° C., benzylamine substrate, Amplex Ultra Red/HRP fluorescence
Method: Compounds were dissolved in DMSO to provide a Concentration Response Curve (CRC; at 500 times the final concentration) over a range of 6-10 dilutions.
Recombinant Human SSAO/VAP-1/AOC3 (R&D systems; Catalog #3957-AO) was used to screen compound potency in vitro, according to previously described methods (J Pharmacol Exp Ther. 2013 November; 347(2):365-74). SSAO enzyme was suspended in 50 mM HEPES buffer to a working concentration of 2.5 μg/ml and 40 μL of this enzyme mixture was then added to each well of a F16 Black Maxisorp 96 well Plate (Nunc, Catalog #475515). Ten microliters of each test compound (at 5 times the final concentration) were added to each well, resulting in a final well volume of 50 μL of the enzyme and inhibitor mixture. The compounds were preincubated with the enzyme for 30 minutes at 37° C., prior to the addition of a 40 μL volume of Amplex Ultra Red (125 uM AUR; Molecular Probes, Catalog # A36006)/Horseradish peroxidase (2.5 U/ml HRP; Sigma-Aldrich Catalog # P8375) oxidase detection reagent containing cytochrome C ([…]; Sigma-Aldrich Catalog # C7752). Cytochrome C was included in the AUR/HRP detection mixture to reduce the background fluorescence that can occur via the spontaneous redox reaction between AUR and HRP. The SSAO enzyme reaction was then initiated by adding 10 μL of the SSAO substrate, benzylamine (Sigma-Aldrich Catalog # B5136), and SSAO activity was measured in kinetic mode over a 30-120 minute sampling period (excit. 544 nm; emit 590 nm; cut off 570 nm; medium gain) to obtain IC50 values for enzyme activity in each treatment well.

IC50, ≤ 10 nM:
NC/C(=C\F)COc1ccc(C23CCC(C(=O)NC4CC(F)(F)C4)(CC2)CC3)cc1 [Compound 2.135, (E)-4-(4-((2-(aminomethyl)-3-fluoroallyl)oxy)phenyl)-N-(3,3-difluorocyclobutyl)bicyclo[2.2.2] octane-1-carboxamide]
CC(C)(CO)NC(=O)C12CCC(c3ccc(OC/C(=C/F)CN)cc3)(CC1)CC2 [Compound 2.34, (E)-4-(4-((2-(aminomethyl)-3-fluoroallyl)oxy)phenyl)-N-(1-hydroxy-2-methylpropan-2-yl)bicyclo[2.2.2]octane-1-carboxamide]
NC/C(=C\F)COc1ccc(C23CCC(C(=O)NCC4(O)CCOCC4)(CC2)CC3)cc1 [Compound 2.35, (E)-4-(4-((2-(aminomethyl)-3-fluoroallyl)oxy)phenyl)-N-((4-hydroxytetrahydro-2H-pyran-4-yl)methyl)bicyclo[2.2.2]octane-1-carboxamide]
NC/C(=C\F)COc1ccc(C23CCC(C(=O)NCC4(O)CCCC4)(CC2)CC3)cc1 [Compound 2.100, (E)-4-(4-((2-(aminomethyl)-3-fluoroallyl)oxy)phenyl)-N-((1-hydroxycyclopentyl)methyl) bicyclo[2.2.2]octane-1-carboxamide]
NC/C(=C\F)COc1ccc(C23CCC(C(=O)N4CCN(CC(F)(F)F)CC4)(CC2)CC3)cc1 [Compound 2.30, (E)-(4-(4-((2-(aminomethyl)-3-fluoroallyl)oxy)phenyl)bicyclo [2.2.2]octan-1-yl)(4-(2,2,2-trifluoroethyl)piperazin-1-yl)methanone]
NC/C(=C\F)COc1ccc(C23CCC(C(=O)N4CC(C(=O)O)C4)(CC2)CC3)cc1 [Compound 2.13, (E)-1-(4-(4-((2-(aminomethyl)-3-fluoroallyl)oxy)phenyl)bicyclo[2.2.2]octane-1-carbonyl)azetidine-3-carboxylic acid]
Cc1cnc(CCNC(=O)C23CCC(c4ccc(OC/C(=C/F)CN)cc4)(CC2)CC3)o1 [Compound 2.45, (E)-4-(4-((2-(aminomethyl)-3-fluoroallyl)oxy)phenyl)-N-(2-(5-methyloxazol-2-yl)ethyl)bicyclo[2.2.2]octane-1-carboxamide]
NC/C(=C\F)COc1ccc([C@]23CC4CC(C2)[C@H](C(=O)NC2CCOCC2)C(C4)C3)cc1 (single isomer, unassigned) [Compound 6.03, anti-5-(4-(((E)-2-(Aminomethyl)-3-fluoroallyl)oxy)phenyl)-N-(tetrahydro-2H-pyran-4-yl)adamantane-2-carboxamide Hydrochloride]
NC/C(=C\F)COc1ccc(C23CCC(OCC(=O)N4CCOCC4)(CC2)CC3)cc1 [Compound 8.02, (E)-2-((4-(4-((2-(aminomethyl)-3-fluoroallyl)oxy)phenyl)bicyclo [2.2.2]octan-1-yl)oxy)-1-morpholinoethanone]
COC1(CNC(=O)C23CCC(c4ccc(OC/C(=C/F)CN)cc4)(CC2)CC3)CC1 [Compound 2.144, (E)-4-(4-((2-(aminomethyl)-3-fluoroallyl)oxy)phenyl)-N-((1-methoxycyclopropyl)methyl) bicyclo[2.2.2]octane-1-carboxamide]
Cc1cncc(CNC(=O)C23CCC(c4ccc(OC/C(=C/F)CN)cc4)(CC2)CC3)n1 [Compound 2.157, (E)-4-(4-((2-(aminomethyl)-3-fluoroallyl)oxy)phenyl)-N-((6-methylpyrazin-2-yl)methyl)bicyclo[2.2.2]octane-1-carboxamide]
NC/C(=C\F)COc1ccc(C23CCC(C(=O)N4CC(OC(F)(F)F)C4)(CC2)CC3)cc1 [Compound 2.94, (E)-(4-(4-((2-(aminomethyl)-3-fluoroallyl)oxy)phenyl)bicyclo [2.2.2]octan-1-yl)(3-(trifluoromethoxy)azetidin-1-yl)methanone]
NC/C(=C\F)COc1ccc(C23CCCC(C(=O)NC4CCOCC4)(CC2)CC3)cc1 [Compound 10.01, (E)-5-(4-((2-(Aminomethyl)-3-fluoroallyl)oxy)phenyl)-N-(tetrahydro-2H-pyran-4-yl)bicyclo[3.2.2]nonane-1-carboxamide Hydrochloride]
C[C@H](NC(=O)C12CCC(c3ccc(OC/C(=C/F)CN)cc3)(CC1)CC2)C1CCOCC1 [Compound 2.27, (S,E)-4-(4-((2-(aminomethyl)-3-fluoroallyl)oxy)phenyl)-N-(1-(tetrahydro-2H-pyran-4-yl)ethyl)bicyclo[2.2.2]octane-1-carboxamide]
NC/C(=C\F)COc1ccc(C23CCC(C(=O)NCc4nnn[nH]4)(CC2)CC3)cc1 [Compound 2.09, (E)-N-((1H-tetrazol-5-yl)methyl)-4-(4-((2-(aminomethyl)-3-fluoroallyl)oxy)phenyl) bicyclo[2.2.2]octane-1-carboxamide]
CO[C@@H](C)CNC(=O)C12CCC(c3ccc(OC/C(=C/F)CN)cc3)(CC1)CC2 [Compound 2.125, (S,E)-4-(4-((2-(aminomethyl)-3-3-fluoroallyl)oxy)phenyl)-N-(2-methoxypropyl)bicyclo[2.2.2] octane-1-carboxamide]
NC/C(=C\F)COc1ccc(C23CCC(C(=O)NCCO)(CC2)CC3)cc1 [Compound 2.47, (E)-4-(4-((2-(aminomethyl)-3-fluoroallyl)oxy)phenyl)-N-(2-hydroxyethyl)bicyclo[2.2.2] octane-1-carboxamide]
NC/C(=C\F)COc1ccc(C23CCC(C(=O)NCCCO)(CC2)CC3)cc1 [Compound 2.61, (E)-4-(4-((2-(aminomethyl)-3-fluoroallyl)oxy)phenyl)-N-(3-hydroxypropyl)bicyclo[2.2.2] octane-1-carboxamide]
COCCOC1CN(C(=O)C23CCC(c4ccc(OC/C(=C/F)CN)cc4)(CC2)CC3)C1 [Compound 2.90, (E)-(4-(4-((2-(aminomethyl)-3-fluoroallyl)oxy)phenyl)bicyclo [2.2.2]octan-1-yl)(3-(2-methoxyethoxy)azetidin-1-yl)methanone]
CC(C)NC(=O)C12CCC(c3ccc(OC/C(=C/F)CN)cc3)(CC1)CC2 [Compound 2.23, (E)-4-(4-((2-(aminomethyl)-3-fluoroallyl)oxy)phenyl)-N-isopropylbicyclo [2.2.2]octane-1-carboxamide]
NC/C(=C\F)COc1ccc(C23CCC(C(=O)NCc4ccccc4)(CC2)CC3)cc1 [Compound 2.80, (E)-4-(4-((2-(aminomethyl)-3-fluoroallyl)oxy)phenyl)-N-benzylbicyclo[2.2.2]octane-1-carboxamide]
CNC(=O)C12CCC(c3ccc(OC/C(=C/F)CN)cc3)(CC1)C2 [Compound 4, (E)-4-(4-((2-(Aminomethyl)-3-fluoroallyl)oxy)phenyl)-N-methylbicyclo[2.2.1]heptane-1-carboxamide Hydrochloride]
COCCOCCOCCOCCNC(=O)C12CCC(c3ccc(OC/C(=C/F)CN)cc3)(CC1)CC2 [Compound 2.51, (E)-4-(4-((2-(aminomethyl)-3-fluoroallyl)oxy)phenyl)-N-(2,5,8,11-tetraoxatridecan-13-yl)bicyclo[2.2.2]octane-1-carboxamide]
COc1nccc(CNC(=O)C23CCC(c4ccc(OC/C(=C/F)CN)cc4)(CC2)CC3)n1 [Compound 2.140, (E)-4-(4-((2-(aminomethyl)-3-fluoroallyl)oxy)phenyl)-N-((2-methoxypyrimidin-4-yl)methyl)bicyclo[2.2.2]octane-1-carboxamide]
